The results in this text go back to article PMC8760490, “Discovery of novel furanylbenzamide inhibitors that target oncogenic tyrosine phosphatase SHP2 in leukemia cells” (The Journal of Biological Chemistry, 2021).

One test addresses T1, SHP2cat (Homo sapiens, UniProt Q06124).
T1 construct: the SHP2 catalytic domain (SHP2cat; residues 248–527); made in house
T1 sequence (Q06124 248-527): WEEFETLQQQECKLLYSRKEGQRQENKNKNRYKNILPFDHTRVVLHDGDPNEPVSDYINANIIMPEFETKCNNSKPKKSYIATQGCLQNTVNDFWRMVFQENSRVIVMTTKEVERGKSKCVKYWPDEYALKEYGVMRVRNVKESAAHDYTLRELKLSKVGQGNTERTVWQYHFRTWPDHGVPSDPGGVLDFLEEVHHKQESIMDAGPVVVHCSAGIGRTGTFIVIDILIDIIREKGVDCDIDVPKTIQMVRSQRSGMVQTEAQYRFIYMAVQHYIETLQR
The test can be described thus: Mass spectrometry test for inhibitor:protein adducts. To be noted: SHP2cat 5 μM, inhibitor 100 μM, 1-60 min. As for the experimental part:
PTPs contain a highly nucleophilic cysteine that is essential for catalytic activity but is susceptible to oxidation and covalent modifications, which abrogate its nucleophilic function and phosphatase activity ([26]). Because the methylenebenzothiophenone moiety of our inhibitors could potentially act as a Michael acceptor and thus covalently bind to the catalytic cysteine, we tested whether the observed inhibition of SHP2 was dependent on the preincubation time of inhibitor and enzyme. An irreversible covalent inhibitor may show time-dependent inhibition, with increased potency at longer incubation times. Conversely, the potency of a noncovalent inhibitor is expected to be insensitive to the time it is incubated with the enzyme. To test for time-dependent inhibition, SBI-2130 at ten different concentrations was preincubated with SHP2-E76K for 1, 5, 10, 20, or 60 min, before the DiFMUP substrate was added to the reaction mixture and initial rates were recorded (Fig. 3C). […] In addition, we used mass spectrometry to test whether inhibitor:protein adducts are being formed. Specifically, we incubated SHP2cat (5 μM) with SBI-4668 (100 μM) in assay buffer for various times (1, 5, 20, and 60 min) before trypsin proteolysis and subsequent mass spectrometry analysis. […] Finally, we performed a jump-dilution experiment to test for irreversible inhibition of SHP2. […]

Test [1] deals with phospho-ERK1/2 (p-ERK1/2) in MOLM-13 AML cells. The experiment in a line: p-ERK1/2 immunoblot, MOLM-13. In kind it is cell-based. The conditions noted are these: SBI-4668 3, 10, 30 μM, RMC-4550 1 μM. Here is the method:
Because SHP2 activity is critical for ERK activation, we used phospho-ERK1/2 (p-ERK1/2) as a more direct readout of SHP2 inhibitor efficacy. […] This p-ERK rebound in MOLM-13 cells treated with RMC-4550 is reminiscent of previously reported data from human hepatoma Hep3B cells treated with SHP099 ([34]). We also tested the effects of SBI-4668 or RMC-4550 on two patient-derived AML samples (Fig. 4F).
Cells cultured in RPMI medium were treated as indicated in the legends to the figures. Total protein extracts were prepared in modified radioimmunoprecipitation assay lysis buffer (25 mM Tris–HCl, pH 7.4, 10% glycerol, 0.2% Triton X-100, 150 mM NaCl, 2 mM Na3VO4, and 1 mM EDTA) containing a protease inhibitor cocktail (Roche Applied Science). Equal amounts of protein were separated on 4 to 12% (p-ERK1/2 blots) or 4 to 20% (SHP2 blots) Bis–Tris gels by SDS-PAGE and transferred to nitrocellulose (p-ERK1/2 blots) or 0.2 μm polyvinylidene fluoride (SHP2 blots) membranes. Membranes were blocked in 5% dry milk (Bio-Rad) in Tris-buffered saline–Tween-20 (TBS–T) (0.1% v/v) for 1 h at RT. Protein-bound membranes were incubated with indicated primary antibody overnight at 4 °C. After washing three times with TBS-T, membranes were incubated for 1 h with horseradish peroxidase–conjugated secondary antibody and then visualized by an ECL Prime detection system (GE Healthcare). Immunoblotting experiments were carried out at least three times, and representative images are shown. Densitometric quantitation of immunoblots was performed using Image Studio Lite Software (LI-COR). Changes of phosphorylated ERK1/2 to total ERK1/2 ratios are expressed as percentage of the vehicle-treated controls. The following antibodies were used: Phospho-Erk1/2 Ab (catalog no.: 9101S; Cell Signaling); total Erk1/2 Ab (catalog no.: 9102S; Cell Signaling); SHP2 Ab (catalog no.: A301-544A; lot no.: 1; Bethyl); and GAPDH (14C10) mAb (catalog no.: 2118S; lot no.: 14; Cell Signaling).

Test [2] concerns phospho-ERK1/2 (p-ERK1/2) in U-937 AML cells. The experiment in a line: p-ERK1/2 immunoblot, U-937. In kind it is cell-based. To be noted: SBI-4668 1, 3, 10, 30 μM, RMC-4550 1 μM. The source says: Oncogenic gain-of-function mutations in SHP2 drive leukemogenesis in a significant number of leukemia patients. However, because of their unique mechanism of action, the existing SHP2 allosteric inhibitors lack activity against the most common SHP2 oncogenic variants. Thus, we tested whether our inhibitors could inhibit the growth of leukemia cells expressing oncogenic SHP2 variants. […] Thus, we tested both SBI-4668 and RMC-4550 on U-937 AML cells, which harbor a G60R oncogenic mutation in SHP2. We treated cells with either SBI-4668 or RMC-4550 at various concentrations, ranging from 0.123 to 30 μM (Fig. 5A). […] We also assessed the effects of SBI-4668 and RMC-4550 on ERK1/2 activation in the SHP2 mutant U-937 cell line. Similar to the immunoblot experiments described for MOLM-13 cells above, U-937 AML cells were treated with either vehicle control (DMSO), SBI-4668 (1, 3, 10, or 30 μM), or with RMC-4550 (1 μM) for 24 h and processed for p-ERK1/2 immunoblot analysis (Fig. 5B).
Cells cultured in RPMI medium were treated as indicated in the legends to the figures. […] Densitometric quantitation of immunoblots was performed using Image Studio Lite Software (LI-COR). Changes of phosphorylated ERK1/2 to total ERK1/2 ratios are expressed as percentage of the vehicle-treated controls. […]
On the technique in general: A western blot detects proteins with antibodies after separation by electrophoresis.

Turning to `O=C(Nc1ccccc1)c1cc(-c2ccc(/C=C3\Sc4ccccc4C3=O)o2)ccc1O` [SBI-4668, (Z)-2-Hydroxy-5-(5-((3-oxobenzo[b]thiophen-2(3H)-ylidene)methyl)furan-2-yl)-N-phenylbenzamide], the “inhibitor:protein adduct formation (mass spectrometry)” value against SHP2cat is reported as “no adduct formation”. The “p-ERK1/2 levels, MOLM-13, 3 h” value in test [1] (3 h) was “dose-dependently inhibits ERK1/2 activation”. In addition, the “p-ERK1/2 levels, MOLM-13, 24 h” value in test [1] (24 h) is given as “dose-dependently inhibits ERK1/2 activation”. Moreover, in test [2], the “p-ERK1/2 levels, U-937, 24 h” value is reported as “dose-dependently inhibited ERK1/2 activation”.
